Measurements from patent US9700547B2, “Use of 6-hydroxy-2-pyridones and derivatives thereof for preparing a pharmaceutical composition that acts by inhibiting the human uridine phosphorylase enzyme” (UNIÃO BRASILEIRA DE EDUCAÇÃO E ASSISTÊNCIA, MANTENEDORA DA …, priority 2013, dated 2017).

What was measured:
[1] = target: T1, Human Phosphorylase Uridine 1 (hUP1) (Homo sapiens, UniProt Q16831); test: hUP1 enzymatic assay, inhibition at 1 μM (UV absorbance of uridine at 280 nm); type: biochemical; conditions: 1 μM compound, 37° C.
T1 sequence (Q16831 whole entry): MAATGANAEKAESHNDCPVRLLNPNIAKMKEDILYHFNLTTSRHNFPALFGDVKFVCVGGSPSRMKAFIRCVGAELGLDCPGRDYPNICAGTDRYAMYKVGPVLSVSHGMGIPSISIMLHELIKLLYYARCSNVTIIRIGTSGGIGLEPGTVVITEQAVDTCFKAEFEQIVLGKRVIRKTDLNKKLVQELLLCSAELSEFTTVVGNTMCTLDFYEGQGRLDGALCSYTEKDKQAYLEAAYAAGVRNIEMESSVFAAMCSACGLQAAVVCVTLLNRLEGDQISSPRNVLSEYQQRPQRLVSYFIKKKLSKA
Experimental: (§1) The enzymatic activity of the hUP1 is performed through the enzymatic essay using one spectrophotometer UV/visible where the absorbance reduction of uridine in 280 nm, for 1 min and at 37° C. was monitored.
For determining which inhibitors would be selected for determining the inhibition constant (Ki), one cut point of 1 μM was stipulated, where only those compounds that would inhibit more than 60% of the initial activity of the enzyme would be selected for this type of analysis (Table 1). From all compounds tested, 7 molecules had its inhibition above 60% with the concentration of 1 μM (Compounds c1, c2, c3, c4, c6, c12, and c13). All essays described on this patent application were performed for these compounds and for benzil acyclo uridine (BAU), in order to perform a direct comparison of the results achieved with the better in vitro inhibitor of the hUP1 described (standard).

hUP1-R1P = hUP1-R1P (Homo sapiens, UniProt Q16831); test: isothermal titration microcalorimetry (ITC), enzyme complexed with product ribose-1-phosphate; type: binding
Sequence of hUP1-R1P (Q16831 whole entry): as above
Experimental: (§2) For determining the thermodynamic parameters (enthalpy variation—ΔH, entropy variation—ΔS, and free energy variation of Gibbs—ΔG) were performed compounds binding essays to the enzyme in different conditions: free enzyme, complexed enzyme with the substrate Pi, and the complexed enzyme with the product ribose-1-phosphate (R1P). For such analyses, it was used isothermal titration microcalorimetry (ITC) where the equipment monitors the difference of transferred heat, between the reference cell and the sample cell, when bindings are formed or broken during the binding process. The data analysis achieved was performed through the model One Set of Sites and the determination of ΔG and the dissociation constant (KD) were through the equations (IV) and (V) below, respectively: ΔG=ΔH−TΔS (IV) KD=1/Ka (V)

[2] = target: T1, Human Phosphorylase Uridine 1 (hUP1); test: Ki and inhibition type from substrate saturation curves, double-reciprocal analysis; type: biochemical; conditions: for Inhibiting type for phosphate: substrate Pi; for Inhibition type for uridine: substrate uridine
Experimental: as §1
For determining Ki for the selected inhibitors, we performed saturation curves where the concentration of one of the substrates is fixed next to the Km and the concentration of another, varied until the saturation in fixed-varying concentrations of each one of the inhibitors.
(I) v=VA/[Ka(1+I/Kii)+A(1+Kis)] (II) v=VA/[A(1+I/Kis)+Ka] (III)

hUP1 = hUP1 (Homo sapiens, UniProt Q16831); test: isothermal titration microcalorimetry (ITC), free enzyme; type: binding
Sequence of hUP1 (Q16831 whole entry): as above
Experimental: as §2

hUP1-Pi = hUP1-Pi (Homo sapiens, UniProt Q16831); test: isothermal titration microcalorimetry (ITC), enzyme complexed with substrate Pi; type: binding
Sequence of hUP1-Pi (Q16831 whole entry): as above
Experimental: as §2

Structure (SMILES) | inhibition at 1 µM [1] [%] | Kd (hUP1-R1P; hUP1-R1P 50 μM) [µM] | ΔG° (hUP1-R1P; hUP1-R1P 50 μM) [kcal/mol] | ΔH° (hUP1-R1P; hUP1-R1P 50 μM) [kcal/mol] | −TΔS (kcal/mol/deg) (hUP1-R1P; hUP1-R1P 50 μM) [kcal/mol] | Kd (hUP1-R1P; hUP1-R1P 150 μM) [µM] | ΔG° (hUP1-R1P; hUP1-R1P 150 μM) [kcal/mol] | ΔH° (hUP1-R1P; hUP1-R1P 150 μM) [kcal/mol] | −TΔS (kcal/mol/deg) (hUP1-R1P; hUP1-R1P 150 μM) [kcal/mol] | Inhibition with 1 μM (%) [1] [%] | Inhibiting type for phosphate [2] | Inhibition type for uridine [2] | Kd (hUP1) [µM] | ΔG° (hUP1) [kcal/mol] | ΔH° (hUP1) [kcal/mol] | −TΔS (kcal/mol/deg) (hUP1) | Kd (hUP1-Pi) [µM] | ΔG° (hUP1-Pi) [kcal/mol] | ΔH° (hUP1-Pi) [kcal/mol] | −TΔS (kcal/mol/deg) (hUP1-Pi)
CCN(CC)Cc1c(O)[nH]c(=O)c(C#N)c1C [Compound c9] | 25 |  |  |  |  |  |  |  |  |  |  |  |  |  |  |  |  |  |  | 
Cc1cc(O)[nH]c(=O)c1C#N [c13] |  | 1.3 ± 0.197 | -8.1 ± 1.2 | -27 ± 0.7 | 19 ± 2.9 | 1.3 ± 0.435 | -8.0 ± 2.7 | -35 ± 2.1 | 27 ± 9.1 | 62 | Not competitive | Not competitive | 12 ± 1.82 | -6.9 ± 1.0 | -8.7 ± 0.7 | 1.7 ± 0.2 |  |  |  | 
Cc1c(Cc2ccccc2)c(O)[nH]c(=O)c1C#N [Compound c11] | 43 |  |  |  |  |  |  |  |  |  |  |  |  |  |  |  |  |  |  | 
N#Cc1ccc(O)[nH]c1=O [c12] | > 60 | 0.108 ± 0.018 | -9.8 ± 1.6 | -15 ± 0.1 | 5.7 ± 0.9 | 0.127 ± 0.048 | -9.7 ± 3.7 | -18 ± 0.5 | 8.5 ± 3.2 | 67 | Not Competitive | Not competitive | 2.9 ± 0.554 | -7.8 ± 1.5 | -9.6 ± 0.3 | 1.7 ± 0.3 |  |  |  | 
Cc1c(CNC(CO)CO)c(O)[nH]c(=O)c1C#N [c6] |  | 7 ± 0.661 | -7.3 ± 0.7 | -18 ± 0.4 | 10 ± 1.0 | 7 ± 2.12 | -7.3 ± 2.2 | -10 ± 1.0 | 3.3 ± 1.0 | 82 | Uncompetitive | Competitive | 5.3 ± 0.674 | -7.4 ± 1.0 |  | 16 ± 2.0 | 0.502 ± 0.083 | -9.0 ± 1.5 | -14 ± 0.2 | 5.0 ± 0.8
Cc1c(CNCCO)c(O)[nH]c(=O)c1C#N [c2] | > 60 | 2.3 ± 0.423 | -8.0 ± 1.5 | -17 ± 0.6 | 9.5 ± 1.7 | 3.8 ± 0.553 | -7.6 ± 1.1 | -30 ± 1.5 | 23 ± 3.3 | 80 | Uncompetitive | Competitive | 2 ± 0.221 | -8.0 ± 0.9 | -23 ± 0.5 | 14 ± 1.5 | 0.151 ± 0.034 | -9.5 ± 2.1 | -16 ± 0.2 | 6.4 ± 1.4
Cc1c(CNCC(O)CO)c(O)[nH]c(=O)c1C#N (stereo not shown) [c4] | > 60 | 4.6 ± 0.344 | -7.5 ± 0.5 | -22 ± 0.5 | 14 ± 1.0 | 9.4 ± 1.04 | -7.1 ± 0.8 | -18 ± 0.8 | 11 ± 1.2 | 78 | Uncompetitive | Competitive | 20 ± 2.63 | -6.7 ± 0.9 | -22 ± 2.2 | 15 ± 2.0 | 0.263 ± 0.026 | -9.3 ± 0.9 | -19 ± 0.1 | 10 ± 1.0
Cc1c(CN2CCCCC2)c(O)[nH]c(=O)c1C#N [Compound c5] | 49 |  |  |  |  |  |  |  |  |  |  |  |  |  |  |  |  |  |  | 
O=c1[nH]cc(CNCCO)c(=O)[nH]1 [Compound c14] | 2 |  |  |  |  |  |  |  |  |  |  |  |  |  |  |  |  |  |  | 
N#Cc1c(-c2ccccc2)cc(O)[nH]c1=O [Compound c7] | 42 |  |  |  |  |  |  |  |  |  |  |  |  |  |  |  |  |  |  | 
CCc1cc(O)[nH]c(=O)c1C#N [Compound c8] | 25 |  |  |  |  |  |  |  |  |  |  |  |  |  |  |  |  |  |  | 
CCCN(CCC)Cc1c(O)[nH]c(=O)c(C#N)c1C [Compound c10] | 20 |  |  |  |  |  |  |  |  |  |  |  |  |  |  |  |  |  |  | 
Cc1c(CN(C)C)c(O)[nH]c(=O)c1C#N [c1] |  | 7.4 ± 0.381 | -7.2 ± 0.4 | -22 ± 0.4 | 14 ± 0.7 | 10 ± 1.32 | -7.0 ± 0.9 | -23 ± 0.1 | 16 ± 2.1 | 81 | Uncompetitive | Competitive | 4.2 ± 0.602 | -7.6 ± 1.1 | -6.7 ± 0.2 | 0.8 ± 0.1 | 0.312 ± 0.073 | -9.1 ± 2.1 | -12 ± 0.2 | 2.6 ± 0.6
